Test results reported in ChEMBL document CHEMBL1141727, “Isolation and cytotoxic evaluation of marine sponge-derived norterpene peroxides” (J Nat Prod, 1998).

Experiments:
Assay type in all cases: functional
NCI-H23 = experiment: Growth inhibition of human NCI-H23 cells
SK-MEL-2 = experiment: Growth inhibition of human SK-MEL-2 cells
EKVX = experiment: Growth inhibition of human EKVX cells
HOP-62 = experiment: Growth inhibition of human HOP62 cells
Malme-3M = experiment: Growth inhibition of human MALME-3M cells
CAKI-1 = experiment: Growth inhibition of human Caki1 cells
COLO 205 = experiment: Growth inhibition of human COLO205 cells
PO3 = experiment: Growth inhibition of mouse PO3 cells assessed as zone units at 50 ug/disk by disk diffusion agar colony formation assay
UO-31 = experiment: Growth inhibition of human UO31 cells
SK-MEL-28 = experiment: Growth inhibition of human SK-MEL-28 cells
HL-60(TB) = experiment: Growth inhibition of human HL-60(TB) cells
MOLT-4 = experiment: Growth inhibition of human MOLT4 cells
M14 = experiment: Growth inhibition of human M14 cells
SF-295 = experiment: Growth inhibition of human SF295 cells
NCI-H226 = experiment: Growth inhibition of human NCI-H226 cells
[1] = Growth inhibition of human Hs 578T cells
U-251 = experiment: Growth inhibition of human U251 cells
MCF7 = experiment: Growth inhibition of human MCF7 cells
OVCAR-3 = experiment: Growth inhibition of human OVCAR-3 cells
MDA-N = experiment: Growth inhibition of human MDA-N cells
L1210 = experiment: Growth inhibition of mouse L1210 cells assessed as zone units at 50 ug/disk by disk diffusion agar colony formation assay
MDA-MB-231 = experiment: Growth inhibition of human MDA-MB-231 cells
P388 = experiment: Growth inhibition of mouse P388 cells assessed as zone units at 50 ug/disk by disk diffusion agar colony formation assay
HCC 2998 = experiment: Growth inhibition of human HCC2998 cells
[2] = Growth inhibition of human […] cells
SK-MEL-5 = experiment: Growth inhibition of human SK-MEL-5 cells
[3] = Growth inhibition of human MCF7/ADR resistant cells; settings: NCI/ADR-RES
HT-29 = experiment: Growth inhibition of human HT-29 cells
OVCAR-5 = experiment: Growth inhibition of human OVCAR5 cells
SK-OV-3 = experiment: Growth inhibition of human SKOV3 cells
CCRF-CEM = experiment: Growth inhibition of human CCRF-CEM cells
HCT-116 = experiment: Growth inhibition of human HCT116 cells
CX-1 = experiment: Growth inhibition of human CX-1 cells assessed as zone units at 50 ug/disk by disk diffusion agar colony formation assay
A498 = experiment: Growth inhibition of human A498 cells
UACC-62 = experiment: Growth inhibition of human UACC62 cells
MDA-MB-435 = experiment: Growth inhibition of human MDA-MB-435 cells
BT-549 = experiment: Growth inhibition of human BT549 cells
SNB-75 = experiment: Growth inhibition of human SNB75 cells
[4] = Growth inhibition of mouse M17/ADR cells assessed as zone units at 50 ug/disk by disk diffusion agar colony formation assay
NCI-H460 = experiment: Growth inhibition of human NCI-H460 cells
UACC-257 = experiment: Growth inhibition of human UACC257 cells
DU-145 = experiment: Growth inhibition of human DU145 cells
NCI-H322M = experiment: Growth inhibition of human NCI-H322M cells
RXF 393 = experiment: Growth inhibition of human […] cells
T47D = experiment: Growth inhibition of human T47D cells
SN12C = experiment: Growth inhibition of human SN12C cells
OVCAR-4 = experiment: Growth inhibition of human OVCAR4 cells
ACHN = experiment: Growth inhibition of human ACHN cells
NCI-H522 = experiment: Growth inhibition of human NCI-H522 cells
SR = experiment: Growth inhibition of human SR cells
786-0 = experiment: Growth inhibition of human 786-0 cells
OVCAR-8 = experiment: Growth inhibition of human OVCAR8 cells
IGROV-1 = experiment: Growth inhibition of human IGROV1 cells
SW-620 = experiment: Growth inhibition of human SW620 cells
HCT-15 = experiment: Growth inhibition of human HCT15 cells
KM12 = experiment: Growth inhibition of human KM12 cells
A549 = experiment: Growth inhibition of human A549 cells
SF-539 = experiment: Growth inhibition of human SF539 cells
HOP-92 = experiment: Growth inhibition of human HOP92 cells
PC-3 = experiment: Growth inhibition of human PC3 cells
K562 = experiment: Growth inhibition of human K562 cells
MC-38 = experiment: Growth inhibition of mouse C38 cells assessed as zone units at 50 ug/disk by disk diffusion agar colony formation assay
TK-10 = experiment: Growth inhibition of human TK10 cells
LOX IMVI = experiment: Growth inhibition of human LOXIMVI cells
SNB-19 = experiment: Growth inhibition of human SNB19 cells

With `C=C1CCC[C@H]2[C@](C)(CCC(C)=O)[C@@H](C)CC[C@]12C` the GI50 (NCI-H23) was > 15 µM, the GI50 (SK-MEL-2) was > 15 µM and the GI50 (EKVX) was > 15 µM. The GI50 (HOP-62) was > 15 µM, the GI50 (Malme-3M) was > 15 µM and the GI50 (CAKI-1) was > 15 µM. The GI50 (COLO 205) was > 15 µM, the Activity (PO3) was 0 Zone units and the GI50 (UO-31) was > 15 µM. For the same compound, the GI50 (SK-MEL-28) was > 15 µM, the GI50 (HL-60(TB)) was > 15 µM and the GI50 (MOLT-4) was > 15 µM. For the same compound, the GI50 (M14) was > 15 µM, the GI50 (SF-295) was > 15 µM and the GI50 (NCI-H226) was > 15 µM. The GI50 [1] was > 15 µM, the GI50 (U-251) was > 15 µM and the GI50 (MCF7) was > 15 µM. For the same compound, the GI50 (OVCAR-3) was > 15 µM, the GI50 (MDA-N) was > 15 µM and the Activity (L1210) was 0 Zone units. The GI50 (MDA-MB-231) was > 15 µM, the Activity (P388) was 0 Zone units and the GI50 (HCC 2998) was > 15 µM. For the same compound, the GI50 [2] was > 15 µM, the GI50 (SK-MEL-5) was > 15 µM and the GI50 [3] was > 15 µM. For the same compound, the GI50 (HT-29) was > 15 µM, the GI50 (OVCAR-5) was > 15 µM and the GI50 (SK-OV-3) was > 15 µM. For the same compound, the GI50 (CCRF-CEM) was > 15 µM, the GI50 (HCT-116) was > 15 µM and the Activity (CX-1) was 100 Zone units. For the same compound, the GI50 (A498) was > 15 µM, the GI50 (UACC-62) was > 15 µM and the GI50 (MDA-MB-435) was > 15 µM. The GI50 (BT-549) was > 15 µM, the GI50 (SNB-75) was 3.02 µM and the Activity [4] was 0 Zone units. The GI50 (NCI-H460) was > 15 µM, the GI50 (UACC-257) was > 15 µM and the GI50 (DU-145) was > 15 µM. For the same compound, the GI50 (NCI-H322M) was > 15 µM, the GI50 (RXF 393) was > 15 µM and the GI50 (T47D) was > 15 µM. The GI50 (SN12C) was > 15 µM, the GI50 (OVCAR-4) was > 15 µM and the GI50 (ACHN) was > 15 µM. The GI50 (NCI-H522) was > 15 µM, the GI50 (SR) was > 15 µM and the GI50 (786-0) was > 15 µM. The GI50 (OVCAR-8) was > 15 µM, the GI50 (IGROV-1) was > 15 µM and the GI50 (SW-620) was > 15 µM. For the same compound, the GI50 (HCT-15) was > 15 µM, the GI50 (KM12) was > 15 µM and the GI50 (A549) was > 15 µM. For the same compound, the GI50 (SF-539) was > 15 µM and the GI50 (HOP-92) was > 15 µM.
`C=C1CCCC(C)(C)C1CCC1(C)CC[C@H]([C@@H](C)C(=O)O)OO1` (single isomer, unassigned) [NAPAPUIN B] showed a GI50 (NCI-H23) of 7.61 µM, a GI50 (SK-MEL-2) of 5.06 µM and a GI50 (EKVX) of 3.19 µM. The GI50 (HOP-62) was 2.11 µM, the GI50 (Malme-3M) was > 12.5 µM and the GI50 (CAKI-1) was 2 µM. The GI50 (COLO 205) was 8.31 µM, the GI50 (UO-31) was 4.31 µM and the GI50 (SK-MEL-28) was > 12.5 µM. It also gave a GI50 (HL-60(TB)) of 1.63 µM, a GI50 (MOLT-4) of 2.16 µM and a GI50 (M14) of 12.2 µM. For the same compound, the GI50 (PC-3) was > 12.5 µM, the GI50 (SF-295) was 5.44 µM and the GI50 (NCI-H226) was 12.5 µM. The GI50 [1] was 8.74 µM, the GI50 (U-251) was 4.33 µM and the GI50 (MCF7) was > 12.5 µM. For the same compound, the GI50 (OVCAR-3) was 2.49 µM, the GI50 (MDA-N) was 3.52 µM and the Activity (L1210) was 230 Zone units. It also gave a GI50 (MDA-MB-231) of 7.44 µM, an Activity (P388) of 230 Zone units and a GI50 (HCC 2998) of 6.78 µM. For the same compound, the GI50 [2] was 3.91 µM, the GI50 (SK-MEL-5) was 6.14 µM and the GI50 [3] was 8.78 µM. The GI50 (HT-29) was 9.26 µM, the GI50 (OVCAR-5) was > 12.5 µM and the GI50 (SK-OV-3) was 9.24 µM. It also gave a GI50 (K562) of 3.3 µM, a GI50 (CCRF-CEM) of 1.76 µM and a GI50 (HCT-116) of 5.19 µM. The Activity (CX-1) was 200 Zone units, the GI50 (A498) was > 12.5 µM and the GI50 (UACC-62) was 9.24 µM. The GI50 (MDA-MB-435) was 2.69 µM, the Activity (MC-38) was 300 Zone units and the GI50 (BT-549) was 1.05 µM. For the same compound, the GI50 (TK-10) was 4.06 µM, the GI50 (SNB-75) was 3.39 µM and the Activity [4] was 330 Zone units. The GI50 (NCI-H460) was 1.83 µM, the GI50 (UACC-257) was > 12.5 µM and the GI50 (LOX IMVI) was 0.25 µM. For the same compound, the GI50 (DU-145) was 2.71 µM, the GI50 (NCI-H322M) was 12.5 µM and the GI50 (RXF 393) was 5.04 µM. The GI50 (T47D) was 3.35 µM, the GI50 (SN12C) was 11.3 µM and the GI50 (OVCAR-4) was 2.4 µM. The GI50 (ACHN) was 7.83 µM, the GI50 (NCI-H522) was 1.21 µM and the GI50 (SR) was 1.8 µM. For the same compound, the GI50 (786-0) was 0.94 µM, the GI50 (SNB-19) was > 12.5 µM and the GI50 (OVCAR-8) was > 12.5 µM. It also gave a GI50 (IGROV-1) of 0.63 µM, a GI50 (SW-620) of 7.23 µM and a GI50 (HCT-15) of 10.7 µM. The GI50 (KM12) was 4.82 µM, the GI50 (A549) was 3.05 µM and the GI50 (SF-539) was 3.28 µM. The GI50 (HOP-92) was 2.23 µM.
